# Experimental data from US12473282B2, “Biphenyl fluorine double bond derivative, preparation method therefor, and pharmaceutical application thereof” (Abbisko Therapeutics Co., Ltd., priority 2020, dated 2025).
# Key:
# [1] = Pharmacokinetic assay in mice; type: in vivo; settings: male, mouse; ICR mice, PO 10 mg/kg, plasma, original compound detected
# Method: III. Pharmacokinetic Assay in Mice
# The purpose of this study was to study the pharmacokinetic behaviors of some compounds of the present invention, and administration routes were: per oral administration (PO) to ICR mice at a dose of 10 mg/kg.
# The compounds used in this test came from the compounds of the specific examples of the present invention.
# ICR mice, male, N=3, with the original source of Shanghai Sippr-BK Laboratory Animal Co. Ltd.
# 2.3 Preparation and Administration of Drug
# The compounds were weighed, and dissolved in a solvent of 0.5% SDS+0.5% CMCNa. The mixture solutions were mixed well by shaking and ultrasonic treatment to obtain colorless clear solutions. The solutions were orally administered to nine mice after an overnight fast. The dosage of administration was 10 mg/kg.
# 1) With about 90 μL/time point, blood was drawn from the submaxillary vein, and heparin sodium was added for anticoagulation. The blood samples were placed onto the ice, and were centrifuged (centrifugation conditions: 8000 r/min, 6 min, 2-8° C.) within 1 hr to obtain plasmas.
# 2) The time points for blood sampling were at 0 hr, 0.25 hr, 0.5 hr, 1 hr, 2 hrs, 4 hrs, 6 hrs, 8 hrs and 24 hrs after administration. The samples were stored in a refrigerator at −20° C.
# 3) 40 μL of plasma sample was added to 160 μL of cold acetonitrile containing an internal standard, and the mixture solution was vortexed for 3 min and centrifuged at 11,000 r/min for 5 min.
# 4) 100 μL of supernate was taken and added to 100 μL of water, and 5 μL of the sample was taken and analyzed by LC/MS/MS.
# Only the original compounds were analyzed for the compounds from the examples of the present invention and the reference compound from Example 158 of WO2020011209A1; and both the original compounds and possible products of ester hydrolysis, namely Example 217, were analyzed for the reference compound from Example 216 of WO2020011209A1.
# [2] = Jurkat reporter gene cellular assay; type: cell-based; settings: Homo sapiens; Jurkat/NF-κB-luc/PD1 + Raji-PD-L1 coculture, OKT3 1 μg/mL, 6 hrs, activation fold; read-out: Cell Activity EC50
# Summary of the method: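 Jurkat cells stably expressing human PD-1 and NF-κB-luciferase co-cultured with PD-L1-expressing Raji cells (5×10^4 each/well) under OKT3 (1 μg/mL final) with compound. Raji cells preincubated 20 min; luminescence read 6 h after Jurkat addition. EC50 from non-linear regression of fold activation over DMSO.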
# [3] = molecular target: interaction between PD-1 and PD-L1 (Homo sapiens (Human), UniProt Q9NZQ7); assay: PD1-PDL1 HTRF binding activity test (Cisbio PD-1/PD-L1 binding assay kit)
# Method: I. PD1-PDL1 HTRF Binding Activity Test
# The effect of compounds of the examples of the present invention on the interaction between PD-1 and PD-L1 was determined by the PD-1/PD-L1 binding assay kit from Cisbio (#64ICP01PEG or 64ICP01PEH). The detailed experimental process was as follows: • 1. Pre-diluted compound solution, 4 μL of Tag1-PD-L1 and 4 μL of Tag2-PD1 were added to each well of a 384-well plate; • 2. After the mixture was incubated at room temperature for 15 min, 5 μL of anti-Tag1-Eu3+ antibody and 5 μL of anti-Tag2-XL665 antibody were then added; • 3. After incubated for 2 hrs at room temperature or overnight at 4° C., plates were read on Envision of Pelkin Elmer; and readings at 665 nm and 620 nm were recorded, and the ratio of the two readings was taken as a reading for each well; • 4. The reading of each well after compound treatment was compared with the reading of DMSO treated wells to obtain the percent inhibition of the compound; • 5. IC50 values of compounds and positive compounds of the examples of the present invention were determined by non-linear regression analysis of percent inhibition at different compound concentrations. II. Jurkat Reporter Gene Cellular Assay
# Chain of interaction between PD-1 and PD-L1 (Q9NZQ7 19-238): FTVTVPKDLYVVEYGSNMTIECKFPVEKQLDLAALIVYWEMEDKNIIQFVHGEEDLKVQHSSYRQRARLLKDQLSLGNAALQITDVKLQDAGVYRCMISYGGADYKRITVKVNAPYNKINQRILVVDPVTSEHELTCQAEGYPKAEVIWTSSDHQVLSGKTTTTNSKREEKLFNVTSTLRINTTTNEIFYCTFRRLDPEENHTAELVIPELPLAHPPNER
Structure (SMILES),AUC(0-t) [1] [ng·h/mL],Cmax [1] [ng/mL],MRT [1] [h],Tmax [1] [h],half-life [1] [h],EC50 [2] [nM],IC50 [3] [nM]
"Cc1c(/C=C(\F)c2nc3c(n2C)CCN(C(C)C)C3)cccc1-c1cccc(NC(=O)c2nc3c(n2C)CCN(CCC24CCC(C(=O)O)(CC2)C4)C3)c1C [Example 1, (Z)-4-(2-(2-((3′-(2-fluoro-2-(5-isopropyl-1-methyl-4,5,6,7-tetrahydro-1H-imidazo[4,5-c]pyridin-2-yl)vinyl)-2,2′-dimethyl-[1,1′-biphenyl]-3-yl)carbamoyl)-1-methyl-1,4,6,7-tetrahydro-5H-imidazo[4,5-c]pyridin-5-yl)ethyl)bicyclo[2.2.1]heptane-1-carboxylic acid]",2490,323,8.3,4,5.2,258,0.688
"COc1cc(/C(F)=C/c2cccc(-c3cccc(NC(=O)c4nc5c(n4C)CCN(CCC46CCC(C(=O)O)(CC4)C6)C5)c3Cl)c2Cl)ncc1CN1CCC(C)(O)C1 (stereo not drawn) [Example 49, (Z)-4-(2-(2-((2,2′-dichloro-3′-(2-fluoro-2-(5-((3-hydroxy-3-methylpyrrolidin-1-yl)methyl)-4-methoxypyridin-2-yl)vinyl)-[1,1′-biphenyl]-3-yl)carbamoyl)-1-methyl-1,4,6,7-tetrahydro-5H-imidazo[4,5-c]pyridin-5-yl)ethyl)bicyclo[2.2.1]heptane-1-carboxylic acid]",15100,1010,7.4,2,4,46.2,0.232
"COc1cc(/C(F)=C/c2cccc(-c3cccc(NC(=O)c4nc5c(n4C)CCN(CCC46CCC(C(=O)O)(CC4)C6)C5)c3Cl)c2Cl)ncc1CNC(C)(C)C [Example 50, (Z)-4-(2-(2-((3′-(2-(5-((tert-butylamino)methyl)-4-methoxypyridin-2-yl)-2-fluorovinyl)-2,2′-dichloro-[1,1′-biphenyl]-3-yl)carbamoyl)-1-methyl-1,4,6,7-tetrahydro-5H-imidazo[4,5-c]pyridin-5-yl)ethyl) bicyclo[2.2.1]heptane-1-carboxylic acid]",–,–,–,–,–,54,0.731
"COc1cc(/C(F)=C/c2cccc(-c3cccc(NC(=O)c4nc5c(n4C)CCN(CCC46CCC(C(=O)O)(CC4)C6)C5)c3Cl)c2Cl)ncc1CN1CCCC1 [Example 58, (Z)-4-(2-(2-((2,2′-dichloro-3′-(2-fluoro-2-(4-methoxy-5-(pyrrolidin-1-ylmethyl)pyridin-2-yl)vinyl)-[1,1′-biphenyl]-3-yl)carbamoyl)-1-methyl-1,4,6,7-tetrahydro-5H-imidazo[4,5-c]pyridin-5-yl)ethyl) bicyclo[2.2.1]heptane-1-carboxvlic acid]",1950,173,9.6,6,5,44.1,0.193
"COc1cc(/C(F)=C/c2cccc(-c3cccc(NC(=O)c4nc5c(n4C)CCN(CCC46CCC(C(=O)O)(CC4)C6)C5)c3Cl)c2Cl)ncc1CN1CC[C@H](O)C1 [Example 59, (S,Z)-4-(2-(2-((2,2′-dichloro-3′-(2-fluoro-2-(5-((3-hydroxypyrrolidin-1-yl)methyl)-4-methoxypyridin-2-yl)vinyl)-[1,1′-biphenyl]-3-yl)carbamoyl)-1-methyl-1,4,6,7-tetrahydro-5H-imidazo[4,5-c]pyridin-5-yl)ethyl)bicyclo[2.2.1]heptane-1-carboxylic acid]",–,–,–,–,–,47.5,0.299
"COc1cc(/C(F)=C/c2cccc(-c3cccc(NC(=O)c4nc5c(n4C)CCN(CCC46CCC(C(=O)O)(CC4)C6)C5)c3Cl)c2Cl)ncc1CN1CC[C@@H](C(=O)O)C1 [Example 73, (R,Z)-1-((6-(2-(3′-(5-(2-(4-carboxybicyclo[2.2.1]heptan-1-yl)ethyl)-1-methyl-4,5,6,7-tetrahydro-1H-imidazo[4,5-c]pyridine-2-carboxamido)-2,2′-dichloro-[1,1′-biphenyl]-3-yl)-1-fluorovinyl)-4-methoxypyridin-3-yl)methyl)pyrrolidine-3-carboxylic acid]",590,442,2,0.5,1.1,50.6,0.186
"COc1cc(/C(F)=C/c2cccc(-c3cccc(NC(=O)c4nc5c(n4C)CCN(CCC46CCC(C(=O)O)(CC4)C6)C5)c3Cl)c2Cl)ncc1CN1CC[C@@](C)(C(=O)O)C1 [Example 75, (R,Z)-1-((6-(2-(3′-(5-(2-(4-carboxybicyclo[2.2.1]heptan-1-yl)ethyl)-1-methyl-4,5,6,7-tetrahydro-1H-imidazo[4,5-c]pyridine-2-carboxamido)-2,2′-dichloro-[1,1′-biphenyl]-3-yl)-1-fluorovinyl)-4-methoxypyridin-3-yl)methyl)-3-methylpyrrolidine-3-carboxylic acid]",2650,806,2.9,1.8,1.8,54.4,0.185
